Experimental data published in ChEMBL document CHEMBL1764981, “Coumarin-purine ribofuranoside conjugates as new agents against hepatitis C virus” (J Med Chem, 2011).
In brackets after ≈: the same amount, converted by molar mass. Activity calls are given as the source filed them. No cut-off for these calls is given here.

Key:
[1] = Selectivity index, ratio of CC50 for human Huh5-2 cells to EC50 for Hepatitis C virus; assay type: toxicity, cell-based, Huh-5-2; settings: read-out: Ratio CC50/EC50
Huh-5-2 = assay: Cytotoxicity against human Huh5-2 cells assessed as microscopically detectable alteration in cell morphology by cytostatic determination assay; assay type: functional
Hepatitis C virus [2] = assay: Antiviral activity against Hepatitis C virus infected in human Huh5-2 cells assessed as […] by viral RNA (luciferase) assay; assay type: functional, organism-based, Hepacivirus hominis; settings: Huh-5-2
Hepatitis C virus [3] = assay: Antiviral activity against Hepatitis C virus; assay type: functional, organism-based; settings: Hepacivirus hominis
[4] = Solubility of compound in water by HPLC-UV method; assay type: physicochemical

Compound	EC50 (Hepatitis C virus [2]) [µM]	solubility [4] [µg/mL]	selectivity ratio [1]	CC50 (Huh-5-2) [µM]	Activity (Hepatitis C virus [3])
CC(=O)OC[C@H]1O[C@@H](n2c(SCc3cc4cc(Br)ccc4oc3=O)nc3cncnc32)[C@H](O)[C@@H]1O	8.3	–	3.8	31	–
CC(=O)OC[C@H]1O[C@@H](n2c(=S)[nH]c3cncnc32)[C@H](OC(C)=O)[C@@H]1OC(C)=O	> 122	–	–	> 122	inactive
CC(=O)OC[C@H]1O[C@@H](n2c(SCc3cc4ccccc4oc3=O)nc3cncnc32)[C@H](O)[C@@H]1O	> 8.9	–	< 0.98	8.7	–
COc1cccc2cc(CSc3nc4c(N)ncnc4n3[C@@H]3O[C@H](CO)[C@@H](O)[C@H]3O)c(=O)oc12	43	–	> 2.4	> 103	–
Nc1ncnc2c1nc(SCc1cc3cc(Br)cc(Br)c3oc1=O)n2[C@@H]1O[C@H](CO)[C@@H](O)[C@H]1O	26	–	1.4	36	–
CC(=O)OC[C@H]1O[C@@H](n2c(SCc3cc4cc(C)ccc4oc3=O)nc3cncnc32)[C@H](OC(C)=O)[C@@H]1OC(C)=O	7.7	–	2.1	16	–
Nc1ncnc2c1nc(SCc1cc3cc(Br)ccc3oc1=O)n2[C@@H]1O[C@H](CO)[C@@H](O)[C@H]1O	27	–	1.5	41	–
CC(=O)OC[C@H]1O[C@@H](n2c(SCc3cc4cc(F)ccc4oc3=O)nc3cncnc32)[C@H](OC(C)=O)[C@@H]1OC(C)=O	6.1	–	1.2	7.6	–
COc1cccc2cc(CSc3nc4cncnc4[nH]3)c(=O)oc12	–	31.6 (≈ 92.8 µM)	4.8	94	–
O=c1oc2ccc(F)cc2cc1CSc1nc2cncnc2n1[C@@H]1O[C@H](CO)[C@@H](O)[C@H]1O	7.4	–	4.9	36	–
COc1cccc2cc(CSc3nc4cncnc4n3[C@@H]3O[C@H](CO)[C@@H](O)[C@H]3O)c(=O)oc12	9.5	224 (≈ 474 µM)	5	47	–
OC[C@H]1O[C@@H](n2c(S)nc3cncnc32)[C@H](O)[C@@H]1O	> 176	–	–	> 176	–
Cc1ccc2oc(=O)c(CSc3nc4cncnc4n3[C@@H]3O[C@H](CO)[C@@H](O)[C@H]3O)cc2c1	9.2	–	5.1	46	–
CC(=O)OC[C@H]1O[C@@H](n2c(SCc3cc4ccccc4oc3=O)nc3cncnc32)[C@H](OC(C)=O)[C@@H]1OC(C)=O	6.6	–	5.9	39	–
CC(=O)OC[C@H]1O[C@@H](n2c(SCc3cc4cc(Br)cc(Br)c4oc3=O)nc3cncnc32)[C@H](O)[C@@H]1O	6.8	–	1	7	–
Nc1ncnc2c1nc(SCc1cc3ccccc3oc1=O)n2[C@@H]1O[C@H](CO)[C@@H](O)[C@H]1O	28	–	1.7	49	–
CC(=O)OC[C@H]1O[C@@H](n2c(=S)n([C@@H]3O[C@H](COC(C)=O)[C@@H](OC(C)=O)[C@H]3OC(C)=O)c3ncncc32)[C@H](OC(C)=O)[C@@H]1OC(C)=O	66	–	> 1.1	> 75	inactive

Continued, in another order:

EC50 (Hepatitis C virus [2]) [µM]	solubility [4] [µg/mL]	Compound	selectivity ratio [1]	CC50 (Huh-5-2) [µM]	Activity (Hepatitis C virus [3])
4.9	–	CC(=O)OC[C@H]1O[C@@H](n2c(SCc3cc4cc(Br)ccc4oc3=O)nc3cncnc32)[C@H](OC(C)=O)[C@@H]1OC(C)=O	1.4	6.7	–
4.3	–	O=c1oc2ccc(Cl)cc2cc1CSc1nc2cncnc2n1[C@@H]1O[C@H](CO)[C@@H](O)[C@H]1O	8.5	37	–
2.3	78.3 (≈ 131 µM)	COc1cccc2cc(CSc3nc4cncnc4n3[C@@H]3O[C@H](COC(C)=O)[C@@H](OC(C)=O)[C@H]3OC(C)=O)c(=O)oc12	3.3	7.5	–
2.8	–	CC1(C)O[C@@H]2[C@H](O1)[C@H](n1c(SCc3cc4ccccc4oc3=O)nc3cncnc31)O[C@@H]2CO	3.2	8.8	–
3.8	–	CC(=O)OC[C@H]1O[C@@H](n2c(SCc3cc4cc(F)ccc4oc3=O)nc3cncnc32)[C@H](O)[C@@H]1O	2.3	8.6	–
2.1	–	CC1(C)O[C@@H]2[C@H](O1)[C@H](n1c(SCc3cc4cc(Br)ccc4oc3=O)nc3cncnc31)O[C@@H]2CO	3.6	7.5	–
3.2	–	CC(=O)OC[C@H]1O[C@@H](n2c(SCc3cc4cc(Cl)ccc4oc3=O)nc3cncnc32)[C@H](OC(C)=O)[C@@H]1OC(C)=O	2.4	7.5	–
1.6	87.7 (≈ 171 µM)	COc1cccc2cc(CSc3nc4cncnc4n3[C@@H]3O[C@H](CO)[C@@H]4OC(C)(C)O[C@@H]43)c(=O)oc12	5.2	8.4	–
4.9	–	CC(=O)OC[C@H]1O[C@@H](n2c(SCc3cc4cc(Br)cc(Br)c4oc3=O)nc3cncnc32)[C@H](OC(C)=O)[C@@H]1OC(C)=O	1.2	6	–
4.6	–	CC(=O)OC[C@H]1O[C@@H](n2c(SCc3cc4cc(C)ccc4oc3=O)nc3cncnc32)[C@H](O)[C@@H]1O	3.5	16	–
5.8	216 (≈ 421 µM)	COc1cccc2cc(CSc3nc4cncnc4n3[C@@H]3O[C@H](COC(C)=O)[C@@H](O)[C@H]3O)c(=O)oc12	1.9	11	–
5.5	–	O=c1oc2ccccc2cc1CSc1nc2cncnc2n1[C@@H]1O[C@H](CO)[C@@H](O)[C@H]1O	9.1	50	–
5.9	–	O=c1oc2c(Br)cc(Br)cc2cc1CSc1nc2cncnc2n1[C@@H]1O[C@H](CO)[C@@H](O)[C@H]1O	6.1	36	–
